The source of these data is PMC5378280 (Cancer Science, 2017).

One data set deals with Japanese RRMM patients. The settings on record: carfilzomib monotherapy; cited from earlier work.
The nature of data set [1]: Pharmacokinetics of carfilzomib in plasma. The data set is classed as in vivo, human. The settings on record: compared with carfilzomib monotherapy study.

Consider `CC(C)C[C@H](NC(=O)[C@H](CCc1ccccc1)NC(=O)CN1CCOCC1)C(=O)N[C@@H](Cc1ccccc1)C(=O)N[C@@H](CC(C)C)C(=O)[C@@]1(C)CO1` [carfilzomib], for which, in the data set with Japanese RRMM patients, the ORR is 22.5%. Besides, in data set [1], the “Effect of lenalidomide and dexamethasone on carfilzomib pharmacokinetics” value is given as “did not appear to be affected”.
